“Also recorded” adds a separate entry of the source.
How the values were obtained:
[1] = system: other kinases including mTOR and AKT; assay: Western blot of phospho-kinases in T cells cultured with commercially available ITK inhibitors; assay type: cell-based; settings: mouse T cells (10n, CTA056) and human PBMC T cells (10n); pAKT, pmTOR
From the text: Novel peptide inhibitor SLP76pTYR specifically targets ITK signaling and enhances Treg cell development. Since T cells from SLP76Y145FKI mice can separate GVHD from GVL, we sought to determine whether disruption of ITK signaling with pharmacological agents would have a similar effect. […] Thus, we sought to design a novel inhibitor that would explicitly target the SLP76-ITK interaction and signaling by preventing the SH2 domain of ITK from docking onto SLP76 at tyrosine 145. Since evolution usually selects residues at specific protein: protein interfaces for certain properties (Pletneva et al., 2006), we analyzed the physico-chemical and structural properties of the interface of the SH2 domain and SLP76-pY145 in our quest to generate a potent inhibitor of the ITK-SH2 domain: SLP76-pY145 interaction (FIG. 17A,B). […]
(FIG. 27A) WT mouse T cells were cultured with either 10n or vehicle, then lysed post-incubation, and lysates were western blotted for pITK (size 50-75 kDa), pPLCγ1 (size ~155 kDa), PERK (size ~42 kDa), pAKT (size ~60 kDa), and pmTOR (size 240 kDa). (FIG. 27B) Western blots from three experiments were quantitated and normalized to actin. […] (FIG. 27D) Western blots from three experiments were quantitated and normalized to actin. […] (FIG. 27F) Western blots from three experiments were quantitated and normalized to β-Actin. […]

S1P1 = S1P1 (Mus musculus, UniProt O08530); settings: retention of T cells in secondary lymphoid organs; cited from earlier work
Chain of S1P1 (O08530 whole entry): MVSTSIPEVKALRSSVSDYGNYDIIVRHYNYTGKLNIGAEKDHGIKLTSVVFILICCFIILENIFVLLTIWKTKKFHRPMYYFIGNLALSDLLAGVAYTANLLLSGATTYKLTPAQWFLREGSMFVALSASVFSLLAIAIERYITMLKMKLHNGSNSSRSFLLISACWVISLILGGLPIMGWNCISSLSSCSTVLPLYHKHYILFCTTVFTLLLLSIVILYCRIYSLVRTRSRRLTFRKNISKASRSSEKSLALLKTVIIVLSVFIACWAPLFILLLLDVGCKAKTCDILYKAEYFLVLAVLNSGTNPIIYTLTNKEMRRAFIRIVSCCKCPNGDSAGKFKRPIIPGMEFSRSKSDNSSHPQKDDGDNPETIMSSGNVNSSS

With O=c1[nH]c2cc3nc(-c4ccc(-c5ccncc5)cc4)n(CCCN4CCCCC4)c3cc2nc1Cc1ccccc1 [CTA056] the “specificity for ITK / inhibition of other kinases” value [1] was “also inhibit several other kinases including mTOR and AKT; also recorded: not specific for ITK”.

For CCCCCCCCc1ccc(CCC(N)(CO)CO)cc1 [FTY720], the “effect on GVHD and GVL” value (S1P1) is listed as “ameliorates GVHD while maintaining GVL effects”.

With CCc1ccc2nc(Nc3cc(Cc4ccccc4)nc(NC4CCC(O)CC4)n3)sc2c1 (stereo not drawn) [GSK2250665A] the “specificity for ITK / inhibition of other kinases” value [1] was “also inhibit several other kinases including mTOR and AKT”.
